The text below walks through data of PMC12564180 (International Journal of Molecular Sciences, 2025).

A short description of series [1]: Incubation of 1 µM [3H]filapixant in human liver microsomes with CYP isoform-selective inhibitors. The series is classed as in vitro ADME. On the technique in general: Microsomes from liver hold many membrane-bound enzymes, among them those of drug oxidation.
In series [2] the target is T1, CYP1A1 (Homo sapiens, UniProt P04798).
T1 construct: purchased
T1 sequence (P04798 1-512): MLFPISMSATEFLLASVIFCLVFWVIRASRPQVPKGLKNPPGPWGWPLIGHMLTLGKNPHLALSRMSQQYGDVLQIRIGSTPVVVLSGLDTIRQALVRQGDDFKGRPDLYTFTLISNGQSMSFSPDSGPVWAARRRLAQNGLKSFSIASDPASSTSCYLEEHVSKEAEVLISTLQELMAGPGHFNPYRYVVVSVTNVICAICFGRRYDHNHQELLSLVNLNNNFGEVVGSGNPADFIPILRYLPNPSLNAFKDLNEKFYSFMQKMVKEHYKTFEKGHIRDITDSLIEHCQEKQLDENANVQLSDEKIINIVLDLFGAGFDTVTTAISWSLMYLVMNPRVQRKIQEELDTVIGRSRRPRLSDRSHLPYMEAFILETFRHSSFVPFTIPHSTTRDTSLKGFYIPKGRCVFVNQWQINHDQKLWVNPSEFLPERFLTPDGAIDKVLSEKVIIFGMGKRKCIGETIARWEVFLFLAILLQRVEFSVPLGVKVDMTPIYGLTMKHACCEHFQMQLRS
The experiment in a line: Incubation of filapixant with human recombinant CYP1A1 (Supersomes). The series is classed as in vitro ADME. To be noted: 1 µM [3H]filapixant, CYP1A1, 60 min.

The target of series [3] is T2, CYP3A4 (Homo sapiens, UniProt P08684).
T2 construct: purchased
T2 sequence (P08684 whole entry): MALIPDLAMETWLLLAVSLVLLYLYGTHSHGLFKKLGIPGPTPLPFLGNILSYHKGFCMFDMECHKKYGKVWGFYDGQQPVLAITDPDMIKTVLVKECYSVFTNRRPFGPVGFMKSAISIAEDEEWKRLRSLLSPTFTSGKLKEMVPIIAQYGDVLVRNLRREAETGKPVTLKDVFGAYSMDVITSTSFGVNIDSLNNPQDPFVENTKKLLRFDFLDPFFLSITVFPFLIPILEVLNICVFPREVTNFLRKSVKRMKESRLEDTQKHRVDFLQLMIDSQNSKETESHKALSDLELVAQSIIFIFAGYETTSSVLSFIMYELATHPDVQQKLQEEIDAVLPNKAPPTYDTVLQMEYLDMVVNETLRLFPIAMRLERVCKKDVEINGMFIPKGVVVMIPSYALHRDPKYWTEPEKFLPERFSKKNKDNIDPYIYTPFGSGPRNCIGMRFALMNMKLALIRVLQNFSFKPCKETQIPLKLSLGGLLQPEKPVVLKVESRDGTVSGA
The experiment in a line: Incubation of filapixant with human recombinant CYP3A4 (Supersomes). The series is classed as in vitro ADME. To be noted: for Remaining drug and formation of metabolites, Peak Area: 1 µM [3H]filapixant, CYP3A4, 60 min; for Vmax of metabolite formation: filapixant in recombinant human CYP3A4 (25 pmol/mL), 20 min incubation.

The target in series [4] is T3, CYP3A5 (Homo sapiens, UniProt P20815).
T3 construct: purchased
T3 sequence (P20815 whole entry): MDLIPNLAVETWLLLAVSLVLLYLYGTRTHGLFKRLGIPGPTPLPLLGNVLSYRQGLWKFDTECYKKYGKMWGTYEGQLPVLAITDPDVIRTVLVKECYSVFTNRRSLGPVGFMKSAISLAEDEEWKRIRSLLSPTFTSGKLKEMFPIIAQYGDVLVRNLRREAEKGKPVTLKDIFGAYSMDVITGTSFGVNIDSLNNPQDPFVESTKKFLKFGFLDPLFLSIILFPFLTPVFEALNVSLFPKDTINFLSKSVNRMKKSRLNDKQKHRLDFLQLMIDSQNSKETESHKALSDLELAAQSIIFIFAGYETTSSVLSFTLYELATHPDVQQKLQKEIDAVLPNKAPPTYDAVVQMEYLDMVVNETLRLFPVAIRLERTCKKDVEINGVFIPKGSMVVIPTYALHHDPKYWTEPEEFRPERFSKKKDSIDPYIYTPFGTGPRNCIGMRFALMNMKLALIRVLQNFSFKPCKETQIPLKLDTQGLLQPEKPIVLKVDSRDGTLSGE
The experiment in a line: Incubation of [3H]filapixant with human recombinant CYP3A5 (Supersomes). The series is classed as in vitro ADME. Particulars: 1 µM [3H]filapixant, CYP3A5, 60 min.

Series [5] in a line: Biotransformation and enzyme kinetics of filapixant in human liver microsomes. The series is classed as in vitro ADME. To be noted: [3H]filapixant 1 µM, pooled human liver microsomes, 1 h of incubation, n = 1. Here is the method: (§1) The incubations were analyzed by high-performance liquid chromatography (HPLC) with tandem mass spectroscopy (MS/MS) followed by off-line radioactivity detection to generate metabolite profiles and elucidate or confirm the structures of the metabolites formed.

A short description of series [6]: Biotransformation of [3H]filapixant in human hepatocytes. The series is classed as in vitro ADME. To be noted: [3H]filapixant 1 µM, 4 h of incubation, range in three batches. The protocol: as §1
The nature of series [7]: Biotransformation and enzyme kinetics of filapixant in human liver microsomes. Particulars: for Vmax of metabolite formation: filapixant in human liver microsomes (0.5 mg/mL), 30 min incubation; for Km at 30 min: human, human liver microsomes, probe filapixant (substrate), read-out: Km,app of metabolite formation. The series is classed as in vitro ADME.
For series [8], the target named is T4, CYP2C9 (Homo sapiens, UniProt P11712).
T4 construct: purchased
T4 sequence (P11712 whole entry): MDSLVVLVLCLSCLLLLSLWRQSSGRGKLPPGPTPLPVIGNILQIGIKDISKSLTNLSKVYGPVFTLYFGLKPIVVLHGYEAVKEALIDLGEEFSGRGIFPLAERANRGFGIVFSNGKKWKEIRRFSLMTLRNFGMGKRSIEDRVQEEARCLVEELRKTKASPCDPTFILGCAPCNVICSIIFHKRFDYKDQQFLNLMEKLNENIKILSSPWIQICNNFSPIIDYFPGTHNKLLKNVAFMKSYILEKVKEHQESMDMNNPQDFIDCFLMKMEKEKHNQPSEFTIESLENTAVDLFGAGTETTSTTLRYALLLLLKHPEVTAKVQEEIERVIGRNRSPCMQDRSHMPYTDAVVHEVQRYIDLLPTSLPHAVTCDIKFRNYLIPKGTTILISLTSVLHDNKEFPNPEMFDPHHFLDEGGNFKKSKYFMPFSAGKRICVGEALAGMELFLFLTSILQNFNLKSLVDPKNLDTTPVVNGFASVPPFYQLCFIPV
Briefly: Incubation of [3H]filapixant with human recombinant CYP2C9 (Supersomes). The series is classed as in vitro ADME. Particulars: 1 µM [3H]filapixant, CYP2C9, 60 min.

Series [9] deals with T5, CYP4F2 (Homo sapiens, UniProt P78329).
T5 construct: purchased
T5 sequence (P78329 5-520): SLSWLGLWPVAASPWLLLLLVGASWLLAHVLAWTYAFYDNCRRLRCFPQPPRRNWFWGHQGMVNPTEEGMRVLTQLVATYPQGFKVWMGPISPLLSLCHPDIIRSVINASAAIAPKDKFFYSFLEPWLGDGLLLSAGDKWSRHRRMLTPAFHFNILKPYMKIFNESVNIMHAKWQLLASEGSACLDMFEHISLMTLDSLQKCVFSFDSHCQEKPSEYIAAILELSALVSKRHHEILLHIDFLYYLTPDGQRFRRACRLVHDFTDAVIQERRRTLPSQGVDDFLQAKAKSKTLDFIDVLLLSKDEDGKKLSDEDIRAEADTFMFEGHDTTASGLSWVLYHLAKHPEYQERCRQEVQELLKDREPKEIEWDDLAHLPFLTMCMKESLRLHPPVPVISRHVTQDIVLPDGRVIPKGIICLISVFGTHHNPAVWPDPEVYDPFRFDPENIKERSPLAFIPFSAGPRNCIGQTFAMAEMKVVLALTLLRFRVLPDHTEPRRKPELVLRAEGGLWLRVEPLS
The experiment in a line: Incubation of [3H]filapixant with human recombinant CYP4F2 (Supersomes). The series is classed as in vitro ADME. Particulars: 1 µM [3H]filapixant, CYP4F2, 60 min.

For series [10] the following is noted: patients; cited from earlier work.
In series [11] the target is T6, CYP2C19 (Homo sapiens, UniProt P33261).
T6 construct: purchased
T6 sequence (P33261 whole entry): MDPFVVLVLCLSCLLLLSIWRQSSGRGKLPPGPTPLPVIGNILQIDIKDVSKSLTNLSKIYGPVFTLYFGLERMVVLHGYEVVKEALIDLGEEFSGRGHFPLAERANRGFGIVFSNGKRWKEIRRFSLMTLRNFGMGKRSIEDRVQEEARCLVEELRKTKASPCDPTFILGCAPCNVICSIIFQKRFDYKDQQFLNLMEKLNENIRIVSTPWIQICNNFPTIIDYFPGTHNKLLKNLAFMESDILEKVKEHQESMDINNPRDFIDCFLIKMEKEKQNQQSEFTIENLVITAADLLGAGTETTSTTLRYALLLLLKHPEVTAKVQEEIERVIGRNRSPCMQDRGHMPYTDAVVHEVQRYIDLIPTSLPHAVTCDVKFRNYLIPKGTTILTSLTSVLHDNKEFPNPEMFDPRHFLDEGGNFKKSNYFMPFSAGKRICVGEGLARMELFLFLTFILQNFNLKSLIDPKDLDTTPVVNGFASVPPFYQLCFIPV
Briefly: Incubation of [3H]filapixant with human recombinant CYP2C19 (Supersomes). The series is classed as in vitro ADME. Particulars: 1 µM [3H]filapixant, CYP2C19, 60 min.

The target in series [12] is T7, CYP2J2 (Homo sapiens, UniProt P51589).
T7 construct: purchased
T7 sequence (P51589 1-502): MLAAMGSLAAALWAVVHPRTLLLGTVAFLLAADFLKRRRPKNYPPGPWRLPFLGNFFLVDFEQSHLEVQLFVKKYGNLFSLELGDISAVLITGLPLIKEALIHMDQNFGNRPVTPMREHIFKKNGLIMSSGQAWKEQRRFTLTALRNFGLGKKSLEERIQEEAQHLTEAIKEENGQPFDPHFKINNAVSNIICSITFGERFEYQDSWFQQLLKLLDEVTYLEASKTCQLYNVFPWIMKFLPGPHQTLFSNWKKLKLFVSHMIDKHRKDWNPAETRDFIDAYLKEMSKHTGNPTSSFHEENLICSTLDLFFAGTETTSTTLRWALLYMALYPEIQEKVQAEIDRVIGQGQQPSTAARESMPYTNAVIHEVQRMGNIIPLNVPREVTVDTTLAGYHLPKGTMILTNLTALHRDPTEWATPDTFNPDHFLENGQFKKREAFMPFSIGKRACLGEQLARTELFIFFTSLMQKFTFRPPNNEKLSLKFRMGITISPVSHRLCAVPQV
The experiment in a line: Incubation of filapixant with human recombinant CYP2J2 (Supersomes). The series is classed as in vitro ADME. To be noted: 1 µM [3H]filapixant, CYP2J2, 60 min.

A short description of series [13]: Depletion of 1 µM filapixant in human hepatocytes in absence and presence of CYP3A4 selective and pan-CYP inhibitors. The series is classed as in vitro ADME. To be noted: 1 µM filapixant, in presence of the inhibitor.
In series [14] the test system is pan-CYP. The description is as above. The series is classed as in vitro ADME. To be noted: human, probe filapixant (1 µM, non-labeled), read-out: % of control CLint inhibited.
Series [15] concerns CYP3A4. Described as above. The series is classed as in vitro ADME. Particulars: human, probe filapixant (1 µM, non-labeled), read-out: % of control CLint inhibited.
For series [16] the following is noted: insect, 1 h, 1 µM.
Series [17] is described as follows: Clinical drug-drug interaction study filapixant with itraconazole: pharmacokinetics. The series is classed as in vivo, human. To be noted: plasma, study day 4, itraconazole 200 mg once daily oral solution.
Method: Spontaneous reported adverse events were recorded as well adverse events that were reported after open-ended and non-leading verbal questioning of the participants to avoid bias. In addition, itraconazole concentrations were measured in plasma at selected time points to confirm that relevant inhibitory plasma levels were achieved.
The study was conducted in a single-center, open-label, fixed sequence design with two periods.
PK parameters were calculated by a non-compartmental analysis using the program WinNonlin version 5.3 (Pharsight Corporation, St. Louis, MO, USA), with the Automation Extension (version 2.90, Bayer Pharma AG, Wuppertal, Germany). The statistical evaluation was performed by using the software package SAS release 9.2 (SAS Institute Inc., Cary, NC, USA). All analyses were exploratory. Therefore, no multiplicity adjustments were performed.
The main PK metrics AUC and Cmax were statistically analyzed, assuming log-normally distributed data. Mean differences between treatments (and their standard error) were determined for logarithmized PK metrics. A total of 90% CIs for treatment differences were determined as well, applying standard methodology for log-normally distributed data. […] Only participants providing a valid PK profile from both study periods were to be included in the primary analysis.
In series [18] the target is T8, CYP2D6 (Homo sapiens, UniProt P10635).
T8 construct: purchased
T8 sequence (P10635 whole entry): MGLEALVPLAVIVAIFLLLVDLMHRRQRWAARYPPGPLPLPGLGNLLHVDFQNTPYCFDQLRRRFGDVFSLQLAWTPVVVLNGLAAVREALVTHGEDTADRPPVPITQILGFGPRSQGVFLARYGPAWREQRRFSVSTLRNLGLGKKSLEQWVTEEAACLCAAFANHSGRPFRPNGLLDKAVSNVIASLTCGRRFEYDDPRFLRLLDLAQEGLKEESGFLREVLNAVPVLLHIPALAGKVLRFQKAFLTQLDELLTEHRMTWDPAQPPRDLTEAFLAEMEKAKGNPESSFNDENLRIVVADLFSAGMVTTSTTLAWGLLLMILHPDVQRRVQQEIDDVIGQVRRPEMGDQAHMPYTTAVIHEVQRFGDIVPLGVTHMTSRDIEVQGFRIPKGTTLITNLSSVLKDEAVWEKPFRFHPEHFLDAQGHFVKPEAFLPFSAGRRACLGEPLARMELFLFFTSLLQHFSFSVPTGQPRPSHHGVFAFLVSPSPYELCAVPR
Briefly: Incubation of filapixant with human recombinant CYP2D6 (Supersomes). The series is classed as in vitro ADME. To be noted: 1 µM [3H]filapixant, CYP2D6, 60 min.

In the case of `CC[C@]1(C)C[C@@H](OC(=O)CSc2nnc(N)[nH]2)[C@]2(C)[C@H](C)CC[C@]3(CCC(=O)[C@H]32)[C@@H](C)[C@@H]1O` [azamulin], in series [1], the “Effect of inhibitor on drug depletion of [3H]filapixant and formation of metabolites” value (“Effect of inhibitor” for short) is “inhibited”.

Turning to `Cc1cnc(-c2cc(OC[C@H]3CN(C)C(=O)CO3)cc(C(=O)N[C@H](C)c3cnc(C(F)(F)F)nc3)c2)s1` [M-4], the “Remaining drug and formation of metabolites, Peak Area” value (from here on “Remaining drug and formation”) in series [2] was 6.5 % of Radioactivity; in [3], 6.1 % of Radioactivity; in series [4], 1.5 % of Radioactivity. Moreover, the “Vmax of metabolite formation” value turned out to be 9.20E+03 peak area/pmol CYP/min in [3] and 1.02E+04 peak area/pmol CYP/min in [7]. In addition, in series [3] (recombinant CYP3A4 25 pmol/mL, 20 min, rate axis: area metabolite/min/mg), the “Vmax of metabolite formation (Michaelis-Menten plot, Figure S7)” value was 9202. Further, the “Recovery of filapixant and metabolite formation, Liver Microsomes” value (shortened to “Recovery … Liver Microsomes”) in series [5] is given as 7.6 % of radioactivity. The “Recovery of filapixant and metabolite formation, Hepatocytes” value (“Recovery … Hepatocytes” for short) in series [6] is 1.0–7.5 % of radioactivity. Also, the “Vmax of metabolite formation (Michaelis-Menten plot, Figure S8)” value in series [7] (human liver microsomes 0.5 mg/mL, 30 min, rate axis: area metabolite/min/mg) is recorded as 1.021e+4. Further, in series [7], the Km (in general, the substrate concentration at which the rate is half of its maximum) at 30 min is 7.9 µM.

For `C[C@@H](NC(=O)c1cc(OC[C@H]2CN(C)CCO2)cc(-c2ncc(C(=O)O)s2)c1)c1cnc(C(F)(F)F)nc1` [M-5], the “Remaining drug and formation” value in [8] was 0.2 % of Radioactivity; in series [3], 0.4 % of Radioactivity; in series [9], 0.5 % of Radioactivity. The “Recovery … Hepatocytes” value in series [6] is 0–0.2 % of radioactivity.

With `Cc1cnc(-c2cc(O[C@@H]3CCOC3)cc(C(=O)N[C@H](C)c3cnc(C(F)(F)F)nc3)c2)s1` [eliapixant], the “Frequency of taste disturbances / taste-related side effects” value in [10] is “considerably reduced compared to gefapixant”.

Take `CNC[C@@H](O)COc1cc(C(=O)N[C@H](C)c2cnc(C(F)(F)F)nc2)cc(-c2ncc(C)s2)c1` [M-8]: the “Remaining drug and formation” value is given as 0.7 % of Radioactivity in [2]; 0.2 % of Radioactivity in series [8]; 0.2 % of Radioactivity in series [11]; 0.7 % of Radioactivity in [12]; 3.4 % of Radioactivity in series [3]. In addition, the “Vmax of metabolite formation” value is 2.48E+04 peak area/pmol CYP/min in series [3] and 4.34E+04 peak area/pmol CYP/min in series [7]. Moreover, the “Recovery … Liver Microsomes” value in series [5] is given as 2.4 % of radioactivity. In addition, the “Recovery … Hepatocytes” value in series [6] is given as 0–1.7 % of radioactivity. For the same compound, the Michaelis-Menten constant (Km) at 30 min in [7] was found to be 28.5 µM.

On to `Nn1nnc2ccccc21` [ABT, 1-Aminobenzotriazol], for which the “Reduction of apparent CLint of filapixant compared to untreated control” value (“Reduction” for short) in series [13] is reported as 90 to 95%. For the same compound, the inhibition at 1000 µM in series [14] came out at 94.5%.

With `COCC(=O)O[C@]1(CCN(C)CCCc2nc3ccccc3[nH]2)CCc2cc(F)ccc2[C@@H]1C(C)C` [Mibefradil, mibefradil], the “Effect of inhibitor” value in [1] is recorded as “inhibited”. Besides, in series [13], the “Reduction” value is listed as 90 to 95%. In addition, the inhibition at 2 µM in series [15] amounted to 95.6%.

Take `Cc1cnc(-c2cc(OC[C@H](O)CN)cc(C(=O)N[C@H](C)c3cnc(C(F)(F)F)nc3)c2)s1` [M-11]: the “Remaining drug and formation” value is given as 1.9 % of Radioactivity in series [3] and 0.2 % of Radioactivity in series [16]. Besides, the “Recovery … Hepatocytes” value in [6] is reported as 0–0.3 % of radioactivity.

On to `CCC(C)n1ncn(-c2ccc(N3CCN(c4ccc(OCC5COC(Cn6cncn6)(c6ccc(Cl)cc6Cl)O5)cc4)CC3)cc2)c1=O` (stereo not drawn) [Itraconazole, itraconazole], for which the “Effect of inhibitor” value in series [1] is listed as “inhibited”. Further, the “Reduction” value in series [13] was 90 to 95%. The inhibition at 2 µM in series [15] amounted to 94.4%. Besides, the “Mean maximum concentrations of itraconazole” value in series [17] was determined as 1014.6 µg/L.

In the case of `C[C@@H](NC(=O)c1cc(OC[C@H]2CN(C)CCO2)cc(-c2ncc(CO)s2)c1)c1cnc(C(F)(F)F)nc1` [M-3], the “Remaining drug and formation” value in series [2] is 2.9 % of Radioactivity; in [18] it was 5.4 % of Radioactivity; in series [12], 0.9 % of Radioactivity; in series [3], 0.5 % of Radioactivity. The “Recovery … Liver Microsomes” value in series [5] was 0.9 % of radioactivity. Further, the “Recovery … Hepatocytes” value in series [6] is reported as 0.4–0.8 % of radioactivity.

On to `COc1cc(C(C)C)c(Oc2cnc(N)nc2N)cc1S(N)(=O)=O` [gefapixant], for which the “Frequency of taste disturbances / taste-related side effects” value in [10] was “high frequency”.
